Laboratory results: ChEMBL document CHEMBL3886281, “Furo[3,4-c]quinoline derivatives, medicaments containing such compounds, their use and process for their preparation” (2015)

Target: T1, Cholesteryl ester transfer protein (Homo sapiens, UniProt P11597)
T1 sequence (P11597 whole entry): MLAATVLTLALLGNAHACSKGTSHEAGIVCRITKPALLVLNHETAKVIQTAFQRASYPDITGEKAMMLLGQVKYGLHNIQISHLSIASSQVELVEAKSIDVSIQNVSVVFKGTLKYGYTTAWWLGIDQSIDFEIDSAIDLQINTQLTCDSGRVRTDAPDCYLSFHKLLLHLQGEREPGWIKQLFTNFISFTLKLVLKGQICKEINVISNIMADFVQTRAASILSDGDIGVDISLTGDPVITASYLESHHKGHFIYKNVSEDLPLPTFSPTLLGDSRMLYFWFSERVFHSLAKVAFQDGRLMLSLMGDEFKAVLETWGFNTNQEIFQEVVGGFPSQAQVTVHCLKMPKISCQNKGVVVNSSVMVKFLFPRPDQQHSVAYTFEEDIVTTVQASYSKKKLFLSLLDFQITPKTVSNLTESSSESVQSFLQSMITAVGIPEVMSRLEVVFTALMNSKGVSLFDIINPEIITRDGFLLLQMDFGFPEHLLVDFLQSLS
Test: CETP In Vitro Assay: CETP inhibitory activity of compounds of the present invention can be determined in a fluorometric assay purchased from Roar Biomedical, Inc. (New York, N.Y., USA). […] Recombinant human CETP was partially purified from medium conditioned by CETP expressing CHO cells. In a 384 well format 2.5 ul of compound solution in DMSO was combined with 2 ul of donor solution, 2 ul of acceptor solution and 0.8 ul of recombinant human CETP solution in a total volume of 100 ul with assay buffer and incubated for 3 hours at 37° C. The fluorescence intensity was measured at excitation wavelength of 485 nm and emission wavelength of 535 nm.

- IC50: 210 nM
Compound: CC(C)c1nc2c(c3c1[C@@H](c1ccc(C(F)(F)F)nc1)OC31CCOCC1)[C@@H](O)CC1(CC1)[C@H]2O
